Source: patent US20130266557A1, “METHODS FOR TREATMENT OF A SARCOMA USING AN EPIMETABOLIC SHIFTER (COENZYME Q10)” (priority 2009, published 2013)
Like-named read-outs stand apart in the source and are kept apart here.

Tests used:
NCIES0808 cells = assay: Real-time PCR, Human Diabetes Arrays; format: cell-based
Method: NCIES0808 cells were plated in T25 flasks at a density of 2×10^6 cells per flask in media or media containing 50 uM/100 uM Q10. All treatment groups were run in triplicate. Cells were harvested at 0, 3, 6, 24 or 48 hours. Pictures were taken to examine cell morphology before harvesting. To harvest cells, media was removed but saved to be able to collect floating apoptotic cells. Cells were trypsinized with 1 ml of trypsin-EDTA and the enzyme action was stopped by addition of 4 ml complete media. Trypsinized cells were added to the appropriate tube containing the media with dead cells. Cells were centrifuged at 1200 rpm for 5 minutes and media was aspirated leaving behind the cell pellet for RNA extraction. RNA isolation from cell pellets was carried out with the RNeasy kit (Qiagen, Valencia Calif.) according to the manufacturer's instructions. RNA samples were eluted from spin columns in water; absorbance was measured at 260 nm, 230 nm and 280 nm. The purity of RNA was evaluated by the 260/230 and 280/230 ratios. The concentration of RNA in all of the samples was calculated from absorbance values at […]. First strand cDNA was synthesized from 0.5 ug of all RNA samples using instructions provided with the First strand kit (SABiosciences, Frederick, Md.). The synthesized first strand from a sample was dispensed equally in a PCR array plate containing primers within a pathway (Angiogenesis, Diabetes and Mitochondria) (SABiosciences Corporation, Frederick, Md.). The arrays were amplified with real time PCR using the SYBR green detection methods using manufacturer approved protocols. The ct values from each of the samples were normalized to three housekeeping genes and fold regulation of Q10 treated groups was compared to time matched controls from cells grown in regular media was calculated.
The experiments described in this example were performed to test the overall hypothesis that Q10 would have an impact on expression of multiple genes in Ewing's sarcoma cells. The mRNA from NCIES0808 cells treated with 50 μM or 100 μM Q10 for various times was evaluated by RT-PCR against a panel of target proteins involved in human diabetes, human angiogenesis or human mitochondrial pathways.
Ct values obtained from a real time thermocycler were loaded onto the analysis tool on the SABiosciences website for calculation of fold regulation compared to cells with media. The genes that are included in the tables below are those that show a p value of close to 0.05.

[1] = cited from earlier work
cancer = settings: Mazzio 2006; cited from earlier work

With Coenzyme Q10 [CoQ10] the “Pattern of regulation, FOXP3 mRNA” value (NCIES0808 cells; 6 hours, 50 uM Q10) was “Upregulation at 6 hours with 50 uM and 100 uM Q10”, the “Pattern of regulation, FOXP3 mRNA” value (NCIES0808 cells; 6 hours, 100 uM Q10) was “Upregulation at 6 hours with 50 uM and 100 uM Q10” and the “Pattern of regulation, GCGR mRNA” value (NCIES0808 cells; 6 hours, 100 uM Q10) was “Upregulation at 6 hours with 100 uM Q10”. The “Pattern of regulation, GPD1 mRNA” value (NCIES0808 cells; 6 hours, 100 uM Q10) was “Upregulation at 6 hours with 100 uM Q10”, the “Pattern of regulation, INPPL1 mRNA” value (NCIES0808 cells; 6 hours, 100 uM Q10) was “Upregulation at 6 hours with 100 uM Q10” and the “Pattern of regulation, IRS2 mRNA” value (NCIES0808 cells; 6 hours, 100 uM Q10) was “Upregulation at 6 hours with 100 uM Q10”. The “Pattern of regulation, ADRB mRNA” value (NCIES0808 cells; 24 hours, 100 uM Q10) was “Upregulation at 24 hours with 100 uM Q10”, the “Pattern of regulation, DUSP4 mRNA” value (NCIES0808 cells; 24 hours, 100 uM Q10) was “Upregulation at 24 hours with 100 uM Q10” and the “Pattern of regulation, FOX C2 mRNA” value (NCIES0808 cells; 24 hours, 100 uM Q10) was “Upregulation at 24 hours with 100 uM Q10”. For the same substance, the “Pattern of regulation, HMOX1 mRNA” value (NCIES0808 cells; 24 hours, 100 uM Q10) was “Upregulation at 24 and 48 hours with 100 uM Q10”, the “Pattern of regulation, VEGFA mRNA” value (NCIES0808 cells; 24 hours, 100 uM Q10) was “Upregulation at 24 hours with 100 uM Q10 and 48 hours” and the “Pattern of regulation, VEGFA mRNA” value (NCIES0808 cells; 48 hours, 50 uM Q10) was “Upregulation at 24 hours with 100 uM Q10 and 48 hours”. For the same substance, the “Pattern of regulation, CEACAM1 mRNA” value (NCIES0808 cells; 48 hours, 100 uM Q10) was “Upregulation at 48 hours with 100 uM Q10”, the “Pattern of regulation, HMOX1 mRNA” value (NCIES0808 cells; 48 hours, 100 uM Q10) was “Upregulation at 24 and 48 hours with 100 uM Q10” and the “Pattern of regulation, IL4R mRNA” value (NCIES0808 cells; 48 hours, 100 uM Q10) was “Upregulation at 48 hours with 100 uM Q10”. For the same substance, the “Share of CoQ10 in the reduced form” value ([1]; blood (plasma)) was roughly 96%, the “Share of CoQ10 in the reduced form” value ([1]; heart) was “about 61%” and the “Share of CoQ10 in the reduced form” value ([1]; intenstine) was roughly 95%. The “Share of CoQ10 in the reduced form” value ([1]; kidney) was roughly 75%, the “Share of CoQ10 in the reduced form” value ([1]; liver) was roughly 95% and the “Share of CoQ10 in the reduced form” value ([1]; muscle) was roughly 65%. For the same substance, the Lethality against cancer (cancer) was “did not find CoQ10 to be as lethal as expected”.
